Results published in patent US20040229791A1, “Compositions and methods of modulating TGF-beta activity by fatty acids” (priority 2002, published 2004).

Target: T1, TGF-β2-α2M* complex (Homo sapiens, UniProt P01023)
T1 construct: was purified from pooled citrate-treate human plasma; from tissue; host or cells: pooled citrate-treated human plasma
T1 sequence (P01023 24-1474): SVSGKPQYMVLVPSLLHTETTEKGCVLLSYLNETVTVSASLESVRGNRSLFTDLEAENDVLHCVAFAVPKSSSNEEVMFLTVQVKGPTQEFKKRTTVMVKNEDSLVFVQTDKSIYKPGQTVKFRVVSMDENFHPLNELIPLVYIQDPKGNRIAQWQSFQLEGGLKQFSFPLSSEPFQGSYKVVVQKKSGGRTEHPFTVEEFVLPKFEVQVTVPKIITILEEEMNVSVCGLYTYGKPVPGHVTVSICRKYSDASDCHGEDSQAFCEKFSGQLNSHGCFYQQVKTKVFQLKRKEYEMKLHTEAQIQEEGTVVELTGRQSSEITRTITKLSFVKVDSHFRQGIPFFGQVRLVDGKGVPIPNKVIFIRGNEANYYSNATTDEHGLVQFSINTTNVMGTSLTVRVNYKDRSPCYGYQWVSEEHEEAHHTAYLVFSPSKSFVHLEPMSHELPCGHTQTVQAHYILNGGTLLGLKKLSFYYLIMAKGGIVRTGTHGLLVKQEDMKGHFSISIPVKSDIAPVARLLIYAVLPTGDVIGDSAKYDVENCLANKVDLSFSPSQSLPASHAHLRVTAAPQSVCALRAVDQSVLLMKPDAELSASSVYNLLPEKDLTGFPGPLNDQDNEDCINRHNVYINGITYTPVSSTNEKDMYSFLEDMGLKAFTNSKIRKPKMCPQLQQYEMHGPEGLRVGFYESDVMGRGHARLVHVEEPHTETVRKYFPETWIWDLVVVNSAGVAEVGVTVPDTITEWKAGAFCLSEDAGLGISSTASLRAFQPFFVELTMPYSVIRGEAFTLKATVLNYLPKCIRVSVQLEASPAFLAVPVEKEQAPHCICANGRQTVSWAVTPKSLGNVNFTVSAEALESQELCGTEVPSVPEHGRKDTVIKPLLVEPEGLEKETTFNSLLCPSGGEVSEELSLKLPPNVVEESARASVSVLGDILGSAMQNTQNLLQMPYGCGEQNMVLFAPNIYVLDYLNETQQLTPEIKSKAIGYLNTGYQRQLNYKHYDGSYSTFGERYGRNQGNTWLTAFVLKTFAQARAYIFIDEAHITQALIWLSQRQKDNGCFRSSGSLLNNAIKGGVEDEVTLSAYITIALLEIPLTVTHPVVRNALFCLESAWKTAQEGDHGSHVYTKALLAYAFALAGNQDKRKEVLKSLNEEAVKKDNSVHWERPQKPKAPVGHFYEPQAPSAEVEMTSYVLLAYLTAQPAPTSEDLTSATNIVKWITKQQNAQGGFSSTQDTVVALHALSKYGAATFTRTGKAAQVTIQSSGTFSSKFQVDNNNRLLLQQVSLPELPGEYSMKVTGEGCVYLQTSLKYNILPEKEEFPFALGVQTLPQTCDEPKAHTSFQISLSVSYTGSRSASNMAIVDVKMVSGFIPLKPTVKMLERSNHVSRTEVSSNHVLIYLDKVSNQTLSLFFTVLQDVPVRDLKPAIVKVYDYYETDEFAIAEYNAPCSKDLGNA
Test: Inhibition of 125I-TGF-β2 and α2M* complex formation (5% non-denaturing PAGE)
Format: binding
Settings: 50% inhibition; read-out: concentration that inhibited 50% of the complex formation of α2M* and 125I-TGF-β2
Procedure: TGF- ? isoforms bind to α2M* with different affinities: TGF ? β2>TGF ? β1 ( active sites of TGF ? β1 and TGF- ? 2 responsible for high-affinity binding to ? 2M* are disti from the low-affinity ? 2M* binding site in TGF- ? 3 (19). To determine if fatty acids differentially affect the binding of TGF- ? isoforms to ? 2M*, the effects of various concentrations of arachidonic acid and myristic acid on complex formation of ^125I-labeled TGF ? β isoforms and ? 2M were determined*. […] It inhibited 30% of the complex form . α2M* and TGF ? β2 and TGF ? β3 at 100 and >250 μM, respectively. Arachidon polyunsaturated fatty acid, was a stronger inhibitor of complex formation of ? 2M* and TGF-.β2/TGF ? β3. It inhibited 50% of the complex formation of ? 2M* and ^125I-TGF- ? 2 at 50 μM (FIG. 3A). The observation that myristic acid and arachidonic acid inhibited complex formation of ^125I-TGF- ? […] 2M* complexes in the reaction mixtures were then analyzed by 7.5% SDS-PAGE and autoradiography.
Complex formation of ^125I-TGF-β and ? […] After 30 min at room temperature, the complex formation of ^125I-TGF- ? and. α2M* was determined by 5% non-denaturing polyacrylamide gel electrophoresis (PAGE) or by 7.5% SDS-PAGE following cross-linking by 0.6 mM DSS. After electrophoresis, the gel was stained with Coomassie blue and analyzed by autoradiography. […] 2M* was quantified using a PhosphoImager (Fuji).

SMILES: CCCCC/C=C\C/C=C\C/C=C\C/C=C\CCCC(=O)O [arachidonic acid]
- IC50: 50 µM
